# Molecular target: T1, HCV NS3 helicase NS3h_1b(con1) (Hepatitis C virus genotype 1b, UniProt Q9WMX2)
# T1 construct: truncated C-terminally His-tagged NS3 proteins lacking the N-terminal protease, called NS3h; His-tag (C); made in house
# Assay: MBHA screen of NCI mechanistic set library at 20 μM (percent inhibition, compound interference)
# Format: biochemical
# Details: compounds at 20 μM; for Inh. (%) (Inhibition): calculated from Equation 1
# Summary of the method: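 Molecular beacon-based DNA unwinding assay; compounds screened at 20 μM in triplicate, with DMSO-only negative and 500 nM dT20 positive controls. Fluorescence (ex 643/em 670 nm) was read before and 30 min after adding ATP to 1 mM. Percent inhibition came from the change relative to DMSO controls; interference from pre-ATP fluorescence versus DMSO controls.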
# [1] = MBHA with DNA substrate, assay interference calculated with Equation 2
# [2] = assay interference calculated with Equation 2 (fluorescence vs DMSO-only controls before ATP)
# T1 sequence (Q9WMX2 1192-1657): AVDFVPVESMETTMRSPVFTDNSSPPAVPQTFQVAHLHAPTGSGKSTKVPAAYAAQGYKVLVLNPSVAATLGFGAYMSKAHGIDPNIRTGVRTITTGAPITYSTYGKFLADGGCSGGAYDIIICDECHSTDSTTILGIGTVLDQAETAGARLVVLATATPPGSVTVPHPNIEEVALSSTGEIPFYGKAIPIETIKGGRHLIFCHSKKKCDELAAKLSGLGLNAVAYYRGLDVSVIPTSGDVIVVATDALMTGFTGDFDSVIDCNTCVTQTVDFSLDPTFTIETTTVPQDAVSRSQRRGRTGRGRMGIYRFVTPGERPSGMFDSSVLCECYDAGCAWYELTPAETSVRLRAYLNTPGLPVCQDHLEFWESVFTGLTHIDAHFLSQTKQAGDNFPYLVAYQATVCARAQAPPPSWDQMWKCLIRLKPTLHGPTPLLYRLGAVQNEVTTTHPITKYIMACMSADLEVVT
Int.* (Ratio) (Interference) [1],Inh. (%) (Inhibition) (MBHA with DNA substrate),Inh. (%) (Inhibition) (MBHA with a DNA substrate),Int.* (Ratio) (Interference) [2],Compound
0.96,−18.4,,,Clc1ccc(-c2c(C3=NCCCN3)nnn2-c2ccc(Cl)cc2)cc1 [Compound 645033]
,,10.2,0.92,CC1=C/C(=N\OCC(=O)O)CC(c2ccc(C(C)C)cc2)C1 (stereo not shown) [Compound 680506]
0.99,−8.1,,,CN(C)[C@@H]1C(=O)C(C(N)=O)=C(O)[C@@]2(O)C(=O)C3=C(O)c4c(O)cccc4C[C@H]3C[C@@H]12 [Compound 51812]
,,−5.4,0.86,COc1ccc(N=C2C(=Nc3ccc(OC)cc3)N(c3ccc(N(C)C)cc3)C(=S)N2c2ccc(OC)cc2)cc1 [Compound 671394]
1.09,−17.7,,,Cc1ccccc1NC(=O)/C=N/O [Compound 625639]
,,9.2,0.90,Cc1ccc(S(=O)(=O)SC/C=C/CSS(=O)(=O)c2ccc(C)cc2)cc1 [Compound 624158]
,,11.4,0.80,COc1cc2oc3cc(=O)cc4oc(-c5ccccc5)cc(c2c2c1CCC(c1ccccc1)O2)c43 (stereo not shown) [Compound 376248]
1.05,1.1,,,COc1ccc(-c2csc(=[N+]3CCCCC3)s2)cc1.O=S(=O)(O)O [Compound 302358]
0.22,99.2,,,COc1ccc2[nH]c3c(C)c4ccncc4c(C)c3c2c1 [Compound 69187]
1.08,−0.1,,,N#CC(C#N)=Cc1cccc(Oc2ccccc2)c1 [Compound 643031]
,,−20.4,0.86,O=C1/C(=C\c2ccccc2)CN(C(=O)/C=C/c2ccccc2)C/C1=C\c1ccccc1 [Compound 638634]
0.92,13.8,,,COc1cc2c(c(OC)c1OC)-c1c(cc3c(c1OC)OCO3)CC(C)C(C)(O)C2OC(=O)c1ccccc1 (stereo not shown) [Compound 330516]
1.07,−18.7,,,Nc1ccc(N)c2c1C(=O)c1ccccc1C2=O [Compound 7833]
0.99,1.4,,,CCc1cccc(C(C)C)c1NC(=O)/C(=N\NC(N)=O)C(C(=O)OC)c1cnc2ccccc2n1 (stereo not shown) [Compound 642033]
1.22,−10.2,,,CN(C)c1ccc(/C=N/N=C2\C(=O)Nc3c(Cl)cc(Cl)cc32)cc1 [Compound 327697]
1.16,−10.4,,,Cc1cc2c(cc1C)[n+](=O)c(C(=O)/C=C/c1ccccc1[N+](=O)[O-])c(C)n2[O-] [Compound 621486]

Int.* (Ratio) (Interference) [1],Inh. (%) (Inhibition) (MBHA with DNA substrate),Inh. (%) (Inhibition) (MBHA with a DNA substrate),Int.* (Ratio) (Interference) [2],Compound
0.20,32.1,,,Cc1cc2c(c3oc(C4(C)OC4C4OC4C)cc(=O)c13)C(=O)c1c(O)c(C3CC(C)(N(C)C)C(O)C(C)O3)cc(C3CC(N(C)C)C(O)C(C)O3)c1C2=O (stereo not shown) [Compound 70929]
0.93,13.2,,,CN1CCN(CCCN2c3ccccc3Sc3ccc(C(F)(F)F)cc32)CC1 [Compound 46061]
,,−21.1,0.98,CCCCCCCCCCCCCCCCCCOCC(COCCOCC[N+]1(CCCCCC(=O)[O-])CCCC1)Oc1ncccn1 (stereo not shown) [Compound 623527]
,,−4.3,0.99,COc1ccc(-c2cc(=O)c3c(O)cc(O)cc3o2)cc1OC [Compound 128305]
,,−28.1,1.06,O=C1Nc2ccc(Br)cc2/C1=C\C(=O)c1ccccc1 [Compound 294961]
0.97,3.9,,,Cc1nc2c(nc1C)C(=O)c1ccccc1C2=O [Compound 602617]
0.53,33.1,,,CC(C)(C)CC(C)(C)NCC(O)COc1ccc(C(C)(C)c2ccc(OCC(O)CNC(C)(C)CC(C)(C)C)cc2)cc1.Cl (stereo not shown) [Compound 145366]
0.96,−12.9,,,Cl.Nc1nccc2c1ncn2C1C=C(CO)C(O)C1O (stereo not shown) [Compound 617989]
1.04,4.6,,,COC(=O)c1[nH]c(=S)[nH]c(=O)c1-c1ccc(Cl)cc1 [Compound 635140]
1.13,−14.1,,,Nc1ccc2c(c1)S(=O)(=O)c1cc(N)ccc1-2 [Compound 13966]
0.89,1.6,,,CN(C)[C@H]1CCC2[C@@H]3CCC4C[C@@H](NC(=O)NC(Cc5ccccc5)c5nccs5)CC[C@]4(C)C3CC[C@@]21C (stereo partly shown) [Compound 647889]
0.95,15.2,,,O=C(ON=C1c2ccccc2C(Br)C(Br)c2ccccc21)c1ccccc1 (stereo not shown) [Compound 670140]
0.85,−2.5,,,COC(=O)c1c[nH]c2c1-c1cc(C(=O)OCc3ccccc3)n(S(=O)(=O)c3ccc(C)cc3)c1C(=O)C2=O [Compound 679524]
,,9.0,0.97,CC1=NC(C(C)C)C(=O)O1 (stereo not shown) [Compound 635968]
,,10.7,0.90,Nc1ccc2c(c1)CN1C(=O)c3ccccc3C1=N2 [Compound 320846]
1.03,−11.4,,,Cc1ccc(S(=O)(=O)c2ccccc2[N+](=O)[O-])cc1 [Compound 627708]

Compound,Int.* (Ratio) (Interference) [1],Inh. (%) (Inhibition) (MBHA with DNA substrate),Inh. (%) (Inhibition) (MBHA with a DNA substrate),Int.* (Ratio) (Interference) [2]
O=C1N[C@@H]2C(=C[C@H](O)[C@@H](O)[C@H]2O)c2cc3c(c(O)c21)OCO3 [Compound 266535],,,−5.9,0.87
CCOC(OCC)C(CC)[Se]c1ccccc1[N+](=O)[O-] (stereo not shown) [Compound 646200],,,−3.7,1.14
CC(C)C[C@H]1C(=O)N2CCC[C@H]2[C@]2(O)O[C@](NC(=O)[C@@H]3C=C4c5cccc6[nH]c(Br)c(c56)C[C@H]4N(C)C3)(C(C)C)C(=O)N12.CS(=O)(=O)O [Compound 169774],0.92,−15.6,,
N[C@@H](CN(O)N=O)C(=O)O [Compound 529469],0.89,18.9,,
O=C1N[C@H]2[C@H](O)[C@H](O)[C@@H](O)[C@H](O)[C@@H]2c2cc3c(c(O)c21)OCO3 [Compound 349156],0.95,−10.2,,
CC(=O)[O][Sn]([CH2]c1ccccc1)([CH2]c1ccccc1)[CH2]c1ccccc1 [Compound 164909],,,−20.2,1.04

# — patent publication US9464064B2, “HCV helicase inhibitors and methods of use thereof” (University of Kansas, priority 2011, dated 2016)
